# Calls of active or inactive are those of the source. Unless noted, the rule behind the calls is not given here.
# Legend:
# [1] = target: G-protein coupled receptor 55 (Homo sapiens, UniProt Q9Y2T6); experiment: selective activators of receptor GPR55 – imaging, U2OS cells, beta-arrestin-GFP redistribution, primary screen (AID 1961); assay type: functional
# Ephrin type-A receptor 4 = Ephrin type-A receptor 4 (Mus musculus, UniProt Q03137); experiment: EphA4 ligand-binding antagonists – biochemical, colorimetric, mouse EphA4, primary screen (AID 689); assay type: functional
# [2] = target: Delta-type opioid receptor (Homo sapiens, UniProt P41143); experiment: SAR Analysis of Antagonists of the DOR Receptor using an Image-Based Assay - Set 3. [Related pubchem assays (depositor defined):AID1777, AID1785]; assay type: functional;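 also: U2OS cells expressing DOR1 and beta-arrestin GFP stimulated with 100 nM SNC80; imaging of GFP-tagged beta-arrestin moving into spots after receptor activation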
# [3] = target: T1, Kappa-type opioid receptor (Homo sapiens, UniProt P41145); experiment: SAR analysis of small molecule antagonists of the kappa opioid receptor via a luminescent beta-arrestin assay - Set 3. [Related pubchem assays (depositor defined):AID1777, AID1778, AID1785, AID1786, AID1966, AID2133, AID2136, AID2285, AID2495]; assay type: functional
# [4] = target: T1, Kappa-type opioid receptor; experiment: SAR analysis of Antagonists of the Kappa Opioid Receptor (KOR) using an Image-Based Assay - Set 4. [Related pubchem assays (depositor defined):AID1777, AID1785]; assay type: functional
# Mu-type opioid receptor = Mu-type opioid receptor (Homo sapiens, UniProt P35372); experiment: SAR Analysis of Antagonists of the MOR Receptor using an Image-Based Assay - Set 3. [Related pubchem assays (depositor defined):AID1777, AID1785, AID1786, AID1966, AID2133, AID2136, AID2284, AID2285, AID2420]; assay type: functional
# NADPH oxidase 3 = NADPH oxidase 3 (Homo sapiens, UniProt Q9HBY0); experiment: PubChem AID 435013
# NADPH oxidase 2 = NADPH oxidase 2 (Homo sapiens, UniProt P04839); experiment: PubChem AID 435013
# NADPH oxidase 1 [5] = target: T2, NADPH oxidase 1 (Homo sapiens, UniProt Q9Y5S8); assay type: functional, cell-based;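 also: Cell-based assay with luminescence read-out, IC50 derived from inhibitor dose-response curves; intracellular ROS from endogenous NOX1 in intact HT29 colon cancer cells; potency of inhibitors that lower the ROS luminescence signal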
# T2 sequence (Q9Y5S8 whole entry): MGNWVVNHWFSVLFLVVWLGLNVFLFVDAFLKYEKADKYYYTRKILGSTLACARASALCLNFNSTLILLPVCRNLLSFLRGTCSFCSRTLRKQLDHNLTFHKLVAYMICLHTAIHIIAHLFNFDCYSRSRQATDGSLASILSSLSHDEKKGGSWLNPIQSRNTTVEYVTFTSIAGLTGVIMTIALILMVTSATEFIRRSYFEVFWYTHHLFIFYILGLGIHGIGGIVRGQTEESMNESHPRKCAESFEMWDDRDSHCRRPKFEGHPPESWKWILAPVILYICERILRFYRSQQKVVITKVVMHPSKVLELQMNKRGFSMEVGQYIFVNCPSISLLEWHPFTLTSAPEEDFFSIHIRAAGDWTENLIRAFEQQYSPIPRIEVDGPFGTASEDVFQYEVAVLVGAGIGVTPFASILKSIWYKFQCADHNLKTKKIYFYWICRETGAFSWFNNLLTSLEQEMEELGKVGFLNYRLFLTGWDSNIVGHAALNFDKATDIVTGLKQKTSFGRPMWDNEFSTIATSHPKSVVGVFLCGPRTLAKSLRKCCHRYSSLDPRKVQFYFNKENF
# NADPH oxidase 1 [6] = target: T2, NADPH oxidase 1; experiment: HEK293 ROS counter-screen potency – cell-based, IC50, set 2, counter-screen for NOX1 inhibitor project, late-stage follow-up (AID 435002); assay type: functional
# [7] = viability loss in Vero cells – cytotoxicity control for Vif-APOBEC3G degradation inhibitor project, dose response (AID 1117358); assay type: functional; settings: Vero
# J774.A1 = experiment: Confirmation of image-based Screening Assay for Inhibitors of Phagocytosis. [Related pubchem assays (depositor defined):AID1029, AID1643]; assay type: functional, cell-based; settings: Mus musculus
# [8] = HEK-293T viability loss after treatment – luminescence, T-cell screen hits, cytotoxicity control for TCR NF-kB inhibitor project, dose response (AID 489026); assay type: functional, cell-based;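 also: cells exposed to compound about 14 hours before the viability readout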
# T1 sequence (P41145 whole entry): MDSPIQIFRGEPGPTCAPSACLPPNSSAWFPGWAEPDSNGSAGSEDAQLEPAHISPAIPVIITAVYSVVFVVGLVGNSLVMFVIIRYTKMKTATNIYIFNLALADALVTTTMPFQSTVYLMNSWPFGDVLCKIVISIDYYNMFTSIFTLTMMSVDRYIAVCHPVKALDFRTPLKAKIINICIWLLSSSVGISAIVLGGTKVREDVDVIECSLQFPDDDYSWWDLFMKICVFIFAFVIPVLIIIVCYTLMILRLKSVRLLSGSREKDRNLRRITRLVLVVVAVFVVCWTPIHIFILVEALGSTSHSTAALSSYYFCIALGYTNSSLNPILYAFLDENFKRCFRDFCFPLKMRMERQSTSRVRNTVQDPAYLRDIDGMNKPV
# Sequence of Mu-type opioid receptor (P35372 whole entry): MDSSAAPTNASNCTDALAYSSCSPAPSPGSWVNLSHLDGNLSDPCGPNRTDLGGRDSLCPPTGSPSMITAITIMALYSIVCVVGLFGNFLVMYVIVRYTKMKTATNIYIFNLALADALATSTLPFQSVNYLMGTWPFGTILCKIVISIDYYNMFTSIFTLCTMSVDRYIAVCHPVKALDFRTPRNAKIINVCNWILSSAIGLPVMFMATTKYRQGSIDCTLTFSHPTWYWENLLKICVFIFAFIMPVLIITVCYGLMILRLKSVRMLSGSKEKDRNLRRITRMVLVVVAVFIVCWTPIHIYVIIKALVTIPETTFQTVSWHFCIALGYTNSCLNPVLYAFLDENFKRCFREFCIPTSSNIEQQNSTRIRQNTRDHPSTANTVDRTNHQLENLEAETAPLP
# Sequence of NADPH oxidase 3 (Q9HBY0 whole entry): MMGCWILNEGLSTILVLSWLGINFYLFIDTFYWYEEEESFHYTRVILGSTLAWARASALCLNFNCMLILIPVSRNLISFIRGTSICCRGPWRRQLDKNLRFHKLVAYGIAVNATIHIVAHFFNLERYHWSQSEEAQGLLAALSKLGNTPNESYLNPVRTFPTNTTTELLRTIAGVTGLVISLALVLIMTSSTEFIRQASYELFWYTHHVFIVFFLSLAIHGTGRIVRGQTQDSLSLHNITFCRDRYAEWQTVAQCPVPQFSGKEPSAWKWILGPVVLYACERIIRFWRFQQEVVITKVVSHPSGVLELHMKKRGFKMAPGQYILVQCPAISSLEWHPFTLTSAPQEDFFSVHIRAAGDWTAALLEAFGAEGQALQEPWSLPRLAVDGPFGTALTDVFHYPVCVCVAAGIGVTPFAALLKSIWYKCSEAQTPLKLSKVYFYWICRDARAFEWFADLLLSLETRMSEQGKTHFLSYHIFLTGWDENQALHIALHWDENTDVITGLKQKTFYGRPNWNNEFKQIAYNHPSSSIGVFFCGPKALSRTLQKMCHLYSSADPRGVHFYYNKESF
# Sequence of Ephrin type-A receptor 4 (Q03137 whole entry): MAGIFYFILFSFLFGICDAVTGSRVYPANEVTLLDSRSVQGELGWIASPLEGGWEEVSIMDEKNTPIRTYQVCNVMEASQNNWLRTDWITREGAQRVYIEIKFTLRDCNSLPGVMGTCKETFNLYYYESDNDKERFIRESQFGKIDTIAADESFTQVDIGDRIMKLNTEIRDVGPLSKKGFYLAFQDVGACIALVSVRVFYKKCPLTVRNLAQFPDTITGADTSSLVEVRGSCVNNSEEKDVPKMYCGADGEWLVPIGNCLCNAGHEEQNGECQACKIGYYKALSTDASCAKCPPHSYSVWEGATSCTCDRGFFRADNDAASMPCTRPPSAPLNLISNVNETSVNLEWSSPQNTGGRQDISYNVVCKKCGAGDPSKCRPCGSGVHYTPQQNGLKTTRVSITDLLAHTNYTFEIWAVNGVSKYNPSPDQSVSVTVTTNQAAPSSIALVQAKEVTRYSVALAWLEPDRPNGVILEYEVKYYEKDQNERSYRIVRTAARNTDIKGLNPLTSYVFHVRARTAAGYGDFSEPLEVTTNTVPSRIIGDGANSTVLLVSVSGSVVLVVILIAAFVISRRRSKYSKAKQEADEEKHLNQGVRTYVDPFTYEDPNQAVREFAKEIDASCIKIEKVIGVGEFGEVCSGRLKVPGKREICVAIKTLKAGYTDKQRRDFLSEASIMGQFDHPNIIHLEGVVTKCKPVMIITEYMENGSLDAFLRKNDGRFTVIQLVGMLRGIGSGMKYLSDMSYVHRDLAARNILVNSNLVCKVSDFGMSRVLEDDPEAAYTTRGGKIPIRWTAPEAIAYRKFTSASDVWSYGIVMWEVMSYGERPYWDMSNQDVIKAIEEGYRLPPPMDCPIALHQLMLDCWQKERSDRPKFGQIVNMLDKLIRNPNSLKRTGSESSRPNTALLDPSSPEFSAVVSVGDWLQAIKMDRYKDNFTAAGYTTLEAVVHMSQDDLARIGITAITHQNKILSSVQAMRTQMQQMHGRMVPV
# Sequence of NADPH oxidase 2 (P04839 whole entry): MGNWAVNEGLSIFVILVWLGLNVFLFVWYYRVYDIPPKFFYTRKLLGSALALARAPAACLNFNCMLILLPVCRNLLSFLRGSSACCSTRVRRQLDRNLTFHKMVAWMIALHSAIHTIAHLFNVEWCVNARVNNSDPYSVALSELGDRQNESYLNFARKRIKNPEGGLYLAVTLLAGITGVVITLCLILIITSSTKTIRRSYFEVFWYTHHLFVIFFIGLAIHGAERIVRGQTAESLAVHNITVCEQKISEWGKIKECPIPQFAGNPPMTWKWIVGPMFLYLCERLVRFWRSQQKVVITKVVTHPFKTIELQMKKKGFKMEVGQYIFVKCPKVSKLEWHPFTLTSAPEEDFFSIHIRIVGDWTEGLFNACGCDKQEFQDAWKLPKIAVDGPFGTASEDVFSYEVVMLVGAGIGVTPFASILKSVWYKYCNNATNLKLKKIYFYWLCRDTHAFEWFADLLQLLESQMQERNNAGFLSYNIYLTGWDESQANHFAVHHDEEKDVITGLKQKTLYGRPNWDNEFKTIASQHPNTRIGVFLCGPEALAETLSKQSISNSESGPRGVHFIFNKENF
# Sequence of Delta-type opioid receptor (P41143 whole entry): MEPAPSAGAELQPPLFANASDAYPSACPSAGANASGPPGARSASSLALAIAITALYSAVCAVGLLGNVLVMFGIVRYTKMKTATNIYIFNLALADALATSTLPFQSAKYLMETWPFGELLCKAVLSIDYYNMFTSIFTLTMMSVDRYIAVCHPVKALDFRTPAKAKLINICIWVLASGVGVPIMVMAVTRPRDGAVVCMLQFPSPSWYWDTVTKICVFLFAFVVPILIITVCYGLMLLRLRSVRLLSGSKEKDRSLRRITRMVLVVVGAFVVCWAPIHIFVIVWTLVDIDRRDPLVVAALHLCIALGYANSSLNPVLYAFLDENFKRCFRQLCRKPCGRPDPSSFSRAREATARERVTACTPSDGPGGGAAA
# Sequence of G-protein coupled receptor 55 (Q9Y2T6 whole entry): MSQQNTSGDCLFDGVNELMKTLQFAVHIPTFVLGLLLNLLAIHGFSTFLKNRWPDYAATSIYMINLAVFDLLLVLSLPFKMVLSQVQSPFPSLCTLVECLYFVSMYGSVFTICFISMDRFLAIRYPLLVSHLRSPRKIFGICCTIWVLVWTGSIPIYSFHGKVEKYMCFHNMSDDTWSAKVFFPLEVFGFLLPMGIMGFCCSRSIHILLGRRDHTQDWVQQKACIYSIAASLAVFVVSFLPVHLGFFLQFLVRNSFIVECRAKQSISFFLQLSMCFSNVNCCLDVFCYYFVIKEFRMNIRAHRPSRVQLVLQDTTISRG
smiles,measurement,setting,value
CCCCN1C(=O)/C(=C/C=C2\N(C)c3ccccc3C2(C)C)SC1=S,EC50,[1],0.731 µM (active)
same,IC50,Ephrin type-A receptor 4,5.34 µM (active)
O=C(Cn1c(=O)c2cccn2c2cccnc21)NCCCN1CCN(c2ccc3c(c2)OCO3)CC1,IC50,[2],> 32 µM (inactive)
same,IC50,[3],4.23 µM (active)
same,IC50,[4],0.776 µM (active)
same,IC50,Mu-type opioid receptor,> 32 µM (inactive)
Oc1c(Br)cc(/C=N/Nc2c(Cl)cncc2Cl)cc1Br,IC50,NADPH oxidase 3,> 50 µM (inactive)
same,IC50,NADPH oxidase 2,> 50 µM (inactive)
same,IC50,NADPH oxidase 1 [5],0.43 µM (active)
same,IC50,NADPH oxidase 1 [6],10 µM (active)
COc1ccc(C2=NOC(C(=O)NCc3cccs3)C2)cc1OC (stereo not drawn),CC50,[7],> 40 µM (active)
same,IC50,J774.A1,0.609 µM (active)
same,IC50,[8],> 80 µM (inactive)

# — ChEMBL document CHEMBL1201862, “PubChem BioAssay data set” (2004)
